Results reported in patent US8466088B2, “Herbicidal compositions containing benzoylpyrazole compounds” (Ishihara Sangyo Kaisha, Ltd., priority 2007, dated 2013).
Read-outs that look alike come from different tables or passages of the source.

Key:
crabgrass = assay: Example 1: pot test, foliar treatment, visually observed growth inhibition of crabgrass; assay type: in vivo; settings: Digitaria sanguinalis, foliar, read-out: Growth inhibition rate (%) of crabgrass, Measured value
velvetleaf = assay: Example 1: pot test, foliar treatment, visually observed growth inhibition of velvetleaf; assay type: in vivo, Abutilon theophrasti MEDIC.; settings: Abutilon theophrasti, foliar, foliar, read-out: Growth inhibition rate (%) of velvetleaf, Measured value
various plants = assay: Example 1: pot test, foliar treatment, visually observed growth inhibition of other sown plants (Tables 5-1 to 5-137); assay type: in vivo; settings: foliar
Text: When the herbicidal activity in a case where two active ingredients are combined, is larger than the simple sum of the respective herbicidal activities of the two active ingredients (the expected activity), it is called a synergistic effect. The activity expected by the combination of two active ingredients can be calculated as follows (Colby S. R., “Weed”, vol. 15, p. 20-22, 1967). E=α+β−(α×β+100) where
α: growth inhibition rate when treated with x (g/ha) of herbicide X,
β: growth inhibition rate when treated with y (g/ha) of herbicide Y,
E: growth inhibition rate expected when treated with x (g/ha) of herbicide X and y (g/ha) of herbicide Y.
That is, when the actual growth inhibition rate (measured value) is larger than the growth inhibition rate by the above calculation (calculated value), the activity by the combination can be regarded as showing a synergistic effect.
Upland field soil was put into a 1/1,000,000 hectare pot, and seeds of various plants were sown. When the respective plants reached predetermined leaf stage, herbicidal compositions in predetermined amounts were diluted with water in an amount corresponding to 300 L/ha and applied for foliar treatment by a small sprayer.
On the 14th to 28th day after application, the state of growth of the respective plants was visually observed to determine the growth inhibition rate (measured value) in accordance with the following evaluation standard. Further, in accordance with the above Colby's formula, the growth inhibition rate (calculated value) was calculated. In Tables, with respect to the compound A, Compound Nos. in Table 1 or 3 are described, and with respect to other herbicidal compounds, common names are described.

[1] = 3.2 to 4.1 leaf stage, 21st day after application
[2] = 4.0 to 4.4 leaf stage, 22nd day after application

CCNc1nc(Cl)nc(NC(C)C)n1 [Atrazine, atrazine, reference compound]
inhibition at 175 g/ha (crabgrass; 2.7 to 3.6 leaf stage, 21st day after application, 175 g/ha): 0% | inhibition at 375 g/ha (crabgrass; 2.7 to 3.6 leaf stage, 21st day after application): 20% | inhibition at 375 g/ha (crabgrass; 3.1 to 4.0 leaf stage, 22nd day after application): 0% | inhibition at 125 g/ha (crabgrass; 3.2 to 4.3 leaf stage, on the 22nd day after application, active ingredient amount 125 g/ha): 0% | inhibition at 250 g/ha (crabgrass; 3.2 to 4.3 leaf stage, on the 22nd day after application, active ingredient amount 250 g/ha): 0% | inhibition at 150 g/ha (crabgrass; 3.8 to 4.4 leaf stage, 21st day after application, 150 g/ha): 0% | inhibition at 125 g/ha (crabgrass; 4.0 to 4.5 leaf stage, 21st day after application, 125 g/ha): 10% | inhibition at 250 g/ha (crabgrass; 4.0 to 4.5 leaf stage, 21st day after application, 250 g/ha): 10% | inhibition at 125 g/ha (crabgrass; 4.3 to 4.5 leaf stage, 20th day after application, 125 g/ha): 0% | inhibition at 250 g/ha (crabgrass; 4.3 to 4.5 leaf stage, 20th day after application, 250 g/ha): 0% | inhibition at 125 g/ha (velvetleaf; 2.4 to 3.2 leaf stage, on the 22nd day after application, active ingredient amount 125 g/ha): 10% | inhibition at 1000 g/ha (velvetleaf; 2.8 to 3.6 leaf stage, 24th day after application, 1000 g/ha): 15% | inhibition at 1500 g/ha (velvetleaf; 2.8 to 3.6 leaf stage, 24th day after application, 1500 g/ha): 15% | inhibition at 2000 g/ha (velvetleaf; 2.8 to 3.6 leaf stage, 24th day after application, 2000 g/ha): 25% | inhibition at 125 g/ha (velvetleaf; 3.0 to 3.5 leaf stage, 20th day after application, 125 g/ha): 0% | inhibition at 125 g/ha (velvetleaf; 3.0 to 3.5 leaf stage, 21st day after application, 125 g/ha): 10% | inhibition at 250 g/ha (velvetleaf; 3.0 to 3.5 leaf stage, 21st day after application, 250 g/ha): 20% | inhibition at 150 g/ha (velvetleaf; 3.0 to 3.8 leaf stage, 15th day after application): 0% | inhibition at 175 g/ha (velvetleaf; [1]): 3% | inhibition at 375 g/ha (velvetleaf; [1]): 5% | inhibition at 150 g/ha (velvetleaf; 3.2 to 5.0 leaf stage, 21st day after application): 60% | inhibition at 150 g/ha (velvetleaf; 3.5 to 4.3 leaf stage, 21st day after application): 0% | inhibition at 175 g/ha (velvetleaf; [2]): 20% | inhibition at 375 g/ha (velvetleaf; [2]): 25% | inhibition at 31 g/ha (various plants; Ipomoea, ivyleaf morningglory 1.5 to 2.1 leaf stage, 23rd day after application, 31 g/ha, read-out: Growth inhibition rate (%) of ivyleaf morningglory, Measured value): 0% | inhibition at 90 g/ha (various plants; Ipomoea, ivyleaf morningglory 1.5 to 2.1 leaf stage, 23rd day after application, 90 g/ha, read-out: Growth inhibition rate (%) of ivyleaf morningglory, Measured value): 0% | inhibition at 180 g/ha (various plants; Ipomoea, ivyleaf morningglory 1.5 to 2.1 leaf stage, 23rd day after application, 180 g/ha, read-out: Growth inhibition rate (%) of ivyleaf morningglory, Measured value): 0% | inhibition at 500 g/ha (various plants; Ipomoea, ivyleaf morningglory 1.5 to 2.1 leaf stage, 23rd day after application, 500 g/ha, read-out: Growth inhibition rate (%) of ivyleaf morningglory, Measured value): 83%

COc1cc(OC)nc(NC(=O)NS(=O)(=O)c2ncccc2C(=O)N(C)C)n1 [Nicosulfuron]
inhibition at 30 g/ha (crabgrass; 3.5 to 4.2 leaf stage, 20th day after application, 30 g/ha): 92% | inhibition at 15 g/ha (crabgrass; 3.8 to 4.4 leaf stage, 21st day after application): 45% | inhibition at 15 g/ha (crabgrass; 3.8 to 5.2 leaf stage, 21st day after application): 40% | inhibition at 15 g/ha (crabgrass; 4.3 to 4.5 leaf stage, 20th day after application): 88% | inhibition at 10 g/ha (velvetleaf; 2.5 to 3.3 leaf stage, 21st day after application, 10 g/ha): 10% | inhibition at 20 g/ha (velvetleaf; 2.5 to 3.3 leaf stage, 21st day after application, 20 g/ha): 20% | inhibition at 30 g/ha (velvetleaf; 2.5 to 3.3 leaf stage, 21st day after application, 30 g/ha): 20% | inhibition at 80 g/ha (velvetleaf; 2.8 to 3.6 leaf stage, 24th day after application, 80 g/ha): 60% | inhibition at 15 g/ha (velvetleaf; 3.0 to 3.5 leaf stage, 21st day after application): 45% | inhibition at 15 g/ha (velvetleaf; 3.0 to 3.8 leaf stage, 28th day after application): 10% | inhibition at 50 g/ha (velvetleaf; 3.3 to 4.3 leaf stage, 20th day after application, 50 g/ha): 50% | inhibition at 7 g/ha (various plants; prickly sida 2.1 to 3.1 leaf stage, 20th day after application, 7 g/ha, read-out: Growth inhibition rate (%) of prickly sida, Measured value): 0% | inhibition at 20 g/ha (various plants; prickly sida 2.1 to 3.1 leaf stage, 20th day after application, 20 g/ha, read-out: Growth inhibition rate (%) of prickly sida, Measured value): 0% | inhibition at 30 g/ha (various plants; prickly sida 2.1 to 3.1 leaf stage, 20th day after application, 30 g/ha, read-out: Growth inhibition rate (%) of prickly sida, Measured value): 10% | inhibition at 60 g/ha (various plants; prickly sida 2.1 to 3.1 leaf stage, 20th day after application, 60 g/ha, read-out: Growth inhibition rate (%) of prickly sida, Measured value): 55%
